Assays:
[1] = target: T1, RARα (Homo sapiens, UniProt P10276); experiment: displacement assay to measure agonist binding affinity; settings: read-out: Binding Affinities for RARα
T1 sequence (P10276 1-462): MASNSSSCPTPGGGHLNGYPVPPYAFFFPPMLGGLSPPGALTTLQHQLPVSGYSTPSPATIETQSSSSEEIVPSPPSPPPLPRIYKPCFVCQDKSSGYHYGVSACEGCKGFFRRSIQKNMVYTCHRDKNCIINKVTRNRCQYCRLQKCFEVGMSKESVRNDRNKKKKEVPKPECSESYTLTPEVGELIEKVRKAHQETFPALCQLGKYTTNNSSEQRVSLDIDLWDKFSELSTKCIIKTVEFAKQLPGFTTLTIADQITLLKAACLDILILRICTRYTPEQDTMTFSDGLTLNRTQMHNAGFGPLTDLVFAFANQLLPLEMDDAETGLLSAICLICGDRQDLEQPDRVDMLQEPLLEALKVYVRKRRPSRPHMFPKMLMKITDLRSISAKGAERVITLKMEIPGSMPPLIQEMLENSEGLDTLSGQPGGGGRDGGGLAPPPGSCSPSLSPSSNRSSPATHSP

[2] = target: T2, RARβ (Homo sapiens, UniProt P10826); experiment: as above; settings: read-out: Binding Affinities for RARβ
T2 sequence (P10826 1-455): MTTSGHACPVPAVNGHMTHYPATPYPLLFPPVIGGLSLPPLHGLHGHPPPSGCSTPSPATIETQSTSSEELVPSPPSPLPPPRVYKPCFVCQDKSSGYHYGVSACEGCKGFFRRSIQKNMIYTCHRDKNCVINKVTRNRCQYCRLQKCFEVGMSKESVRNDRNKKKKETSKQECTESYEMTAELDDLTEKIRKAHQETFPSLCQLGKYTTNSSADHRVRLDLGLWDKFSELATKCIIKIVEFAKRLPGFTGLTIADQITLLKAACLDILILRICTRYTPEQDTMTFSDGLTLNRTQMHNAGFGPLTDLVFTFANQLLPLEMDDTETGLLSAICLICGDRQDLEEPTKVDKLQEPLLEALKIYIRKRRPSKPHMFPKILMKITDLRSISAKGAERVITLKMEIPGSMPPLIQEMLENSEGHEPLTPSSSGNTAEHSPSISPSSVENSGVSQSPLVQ

[3] = target: T3, RARγ (Homo sapiens, UniProt P13631); experiment: as above; settings: read-out: Binding Affinities for RARγ
T3 sequence (P13631 1-454): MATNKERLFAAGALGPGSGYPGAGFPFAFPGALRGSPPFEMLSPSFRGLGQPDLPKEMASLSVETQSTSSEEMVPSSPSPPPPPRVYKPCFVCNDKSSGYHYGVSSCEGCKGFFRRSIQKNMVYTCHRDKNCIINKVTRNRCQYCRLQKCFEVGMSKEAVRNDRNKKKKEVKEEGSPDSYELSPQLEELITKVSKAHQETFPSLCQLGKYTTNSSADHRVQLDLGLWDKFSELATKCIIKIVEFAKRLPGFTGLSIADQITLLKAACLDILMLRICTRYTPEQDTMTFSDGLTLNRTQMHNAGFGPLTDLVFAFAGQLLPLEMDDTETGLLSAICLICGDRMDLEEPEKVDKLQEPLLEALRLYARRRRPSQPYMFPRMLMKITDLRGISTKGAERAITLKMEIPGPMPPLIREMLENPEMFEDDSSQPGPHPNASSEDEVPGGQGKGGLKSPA

[4] = system: RARα, RARβ, and RARγ; experiment: transactivation assay to measure agonist activity; assay type: cell-based; settings: FIG. 2
Source text: Other RARα selective agonists useful as a compound disclosed herein are described in, e.g., Teng, et al., Aryl or Heteroaryl Amides of Tetrahydronaphthalene, Chroman, Thiochroman and 1,2,3,4-Tetrahydroquinoline Carboxylic Acids, Having an Electron Withdrawing Substituent in the Aromatic Or Heteroaromatic Moiety, Having Retinoid-Like Biological Activity, U.S. Pat. No. 5,856,490; Teng, et al., Methods of Treatment with Compounds Having RARα Receptor Specific or Selective Activity, U.S. Pat. No. 5,965,606; and Nehma, et al., Treatment of Tumors with RARα Selective Retinoid Compounds in Combination with Other Anti-Tumor Agents, U.S. Pat. No. 6,387,950; each of which is incorporated by reference in its entirety. […] Assays by which a compound can be tested and established whether or not it is an RARα selective agonist, are known in the art and are described in numerous prior art publications and patents.

[5] = system: Naive CD4+ CD25− FoxP3− cells; experiment: Treg cell differentiation (FoxP3-GFP expression by flow cytometry) in vitro; assay type: cell-based, mouse; settings: αCD3, IL-2 and TGF-β
Description: Purified CD4+ CD25^− FoxP3^− cells were cultured in media with the specified concentration of each RAR agonist and analyzed by flow cytometry for FoxP3 (A), α4β7 (B), and CCR9 (C) expression in total CD4 T cells. FoxP3 results are representative of 3 independent experiments. CCR9 and α4β7 results are representative of multiple experiments.
It is important to determine which of the RAR (RARα, RARβ, RARγ) signaling pathways is important in the induction of Foxp3 expression. To determine this, naive CD4^+ CD25^− FoxP3^− cells were purified from a Foxp3-GFP mouse using flow cytometry by sorting and isolating based upon a GFP^− phenotype. These cells were activated polyclonally with αCD3 in vitro in the presence of IL-2 and TGF-β. To identify the RAR involved in RA-induced, the cultured cells were incubated with RAR selective agonists. The cultured cells were then score for the frequency of GFP+ (Foxp3+). With respect to the use of selective agonists, only the RARα agonist exerted significant impact on the expression of Foxp3 inducing nearly 100% Foxp3+ T cells, with enhancement on the expression of α4β7 and CCR9 (gut homing receptors) (FIG. 1). The RARγ and RARβ agonists were without effect.
(§1) To determine whether a RARα selective agonist could affect T cell differentiation, T cells were incubated with a RARα selective agonist to determine its effect on Foxp3 expression evaluated. Naive CD4^+ CD25^− FoxP3^− cells were purified from a Foxp3-GFP mouse using flow cytometry by sorting and isolating based upon a GFP^− phenotype. These cells were activated polyclonally with αCD3 in vitro in the presence of IL-2 and TGF-β. These cells were then cultured in media with various concentrations of compound 5183 (a RARα selective agonist) and the expression of FoxP3-GFP was analyzed by flow cytometry. The RARα selective agonist compound 5183 enhanced differentiation of immunosuppressive Treg cells and inhibited differentiation of inflammatory TH17 cells from Naïve T cells in vitro (Table 2).

[6] = system: Naïve T cells; experiment: Th17 cell differentiation from Naïve T cells in vitro; assay type: cell-based, mouse
Description: as §1

[7] = system: CD4+ T cells; experiment: in vivo FoxP3 expression in CD4+ T cells of blood and spleen; design: species or system mouse; settings: mice, 100 μg every other day for 10 days
Description: To expand on the finding above, the in vivo effects of a RARα selective agonist on T cell differentiation was evaluated in a mouse model. Mice were treated 100 μg of compound 5183 (a RARα agonist) or an equivalent volume of DMSO (vehicle control) every other day for 10 days. Lymphocytes from the blood and spleen were then isolated and FoxP3 expression in CD4^+ T cells was assessed.

[8] = system: experimental autoimmune encephalomyelitis (EAE); experiment: experimental autoimmune encephalomyelitis (EAE) mouse model; assay type: in vivo, SJL mice
Description: To determine if RARα selective agonists reduce symptoms associated with an autoimmune disorder, the effects of a RARα selective agonist was evaluated in an experimental autoimmune encephalomyelitis (EAE) mouse model. EAE is an inflammatory disease of the central nervous system widely used as a model of multiple sclerosis in which Th17 cells are the principle mediators of the symptoms observed. […] In one set of experiments, the effects of prophylactic dosing were assessed. Mice were administered 1 mg/kg of compound 5183 intraperitoneally every other day starting day 1 after EAE induction. In a second set of experiments, the effects of therapeutic dosing were assessed. Mice were administered 2 mg/kg of compound 5183 intraperitoneally every other day starting day 7 after EAE induction. Clinical parameters of disease (loss of bodyweight and paralysis/paresis) were monitored on a daily basis.

CC1(C)CCC(C)(C)c2c1cc(C(=O)Nc1cc(F)c(C(=O)O)c(F)c1)c(O)c2Cl [Compound 5183]
Kd [1]: 0.0047 µM | Kd [2]: > 10 µM | Kd [3]: > 10 µM | activation of transcription from RARα, RARβ, and RARγ [4]: specifically activates RARα | Treg cell Percent Differentiation (%) ([5]; 0.1 nM): 26% | Treg cell Percent Differentiation (%) ([5]; 1 nM): 55% | Treg cell Percent Differentiation (%) ([5]; 10 nM): 90% | Th17 cell Percent Differentiation (%) ([6]; 0.1 nM): 32% | Th17 cell Percent Differentiation (%) ([6]; 1 nM): 21% | Th17 cell Percent Differentiation (%) ([6]; 10 nM): 11% | Th17 cell Percent Differentiation (%) ([6]; 100 nM): 5% | Foxp3+ Expression (%) ([7]; Blood): 4.3% | Foxp3+ Expression (%) ([7]; Spleen): 25% | symptoms associated with EAE (loss of bodyweight and paralysis/paresis) ([8]; prophylactic dosing: 1 mg/kg intraperitoneally every other day starting day 1 after EAE induction): reduced symptoms associated with EAE | symptoms associated with EAE (loss of bodyweight and paralysis/paresis) ([8]; therapeutic dosing: 2 mg/kg intraperitoneally every other day starting day 7 after EAE induction): reduced symptoms associated with EAE

From patent US20120238623A1, “Inflammation and Autoimmune Disorder Treatment using RARa Selective Agonists” (priority 2011, published 2012)
